Measured values as given in US20200018743A1, “MINI-CANCERS UTILIZATION FOR PERSONALIZED CANCER DRUG REGIMENS” (THE JOHNS HOPKINS UNIVERSITY, priority 2017, published 2020).
Entries after “also recorded” stand apart in the source; their conditions may differ. Where two headings read alike, the source gives them in different places. Starred links: 1 amine or outer side, 2 acyl side, 3 side chain; linkers in the order of their positions; H or OH if unused. Positions of bridges follow the written chain, without caps; N, C: chain ends. Non-standard residues stand in square brackets, D forms with d. Residues, ends and D or L forms follow the SMILES beside them. Chains are numbered I, II in the order given. Actinocin(9to1) = Cc1c2oc3c(C)ccc(C(=O)[*:1])c3nc-2c(C(=O)[*:2])c(N)c1=O; NMeV = CN[C@H](C(=O)O)C(C)C; Sar = CNCC(=O)O

How the values were obtained:
[1] = tested on: CCA8 sister CCA PDO lines; test: 129-drug panel on the 6 sister PDO lines of CCA8; type: cell-based, human
From the text: (§1) This intra tumor functional heterogeneity was investigated by calculating the standard deviation of a drug response across all PDO lines established from a patient tumor. […] The inventors chose one of the cancer specimens (CCA8) for further in-depth studies of intra-tumor functional heterogeneity and the identification of its drivers. […] To visualize this phenomenon, we calculated the standard deviation of each drug effect across the 6 PDOs (FIG. 20D). […] To this end, we first chose drugs that induced 30% or less viability in at least one of the 6 sister CCA PDO lines when tested at a 10 uM concentration. […] Of note, there is no known genetic alteration (mutational or otherwise) to predict the response of human cancers to proteasome inhibitors.
(§2) PDOs were plated in 96-well or 384-well plates and cultured for 3 days. Next, media was changed with drug-containing media. The initial screen was performed at a concentration of 10 uM. After 4 days, viability was determined in each well with Cell TiterGlo (Cat #: G7572, Promega, Wis.) following the manufacturer's instruction. […] was measured with a plate reader (Perkin-Elmer EnVision Plate Reader). Drugs that induced less than 50% viability were chosen for future studies.

[2] = tested on: 27 liver cancer PDO lines; test: High throughput screening of NCI VII 129-drug panel on 27 liver cancer PDO lines (CellTiter-Glo); type: cell-based, human; details: for effectiveness across the cohort of primary liver mini-cancers / all 27 liver cancer PDO lines: 10 uM, CellTiter-Glo; for inter patient effect (mean cell viability per patient cancer specimen): across the 5 patients' cancers
From the text: To pick out inter patient divergent drugs (i.e., drugs with discordant effect across the 5 patients), we calculated the mean cell viability per patient cancer specimen by averaging the effect of the drugs across all PDO lines established for the same patient. This mean cell viability per patient is a measure of how the tumor, as a whole, responds to a certain drug. Next, we calculated the standard deviation of the 5 means (one per patient) and ordered the data in decreasing order of the standard deviation. […] To further visualize the inter-patient divergence of drug effects, the inventors constructed a heat map of drug responses per each patient (utilizing the mean cell viability over all clones from each patient, FIG. 20B).
as §1
Take out Matrigel from −20 C and keep at 4 C overnight. Also keep pipette tips at 4 C overnight. Count cells. Mix cells with Matrigel so that you have 200 cells per uL of Matrigel. […] Plate 2 rows, then stop. Wait till the Matrigel is solid. Then add 100 uL of growth passage media. Then continue till all plate is filled up with cells. Place plate into incubator. Take picture with white light. After 4 days replace the media with media containing drugs (90 uL media+10 uL drug work solution). Use a multi-pipette.
as §2

CCA PDO = test: Drug testing on a CCA PDO line read by white light / bright field images; type: cell-based, human; details: for effect on PDO (shape, number or size of cystic PDO structures): 9-drug library, 10 uM, white light images; for effect on PDO growth (cytocidal / cytostatic): over 96 hours
Procedure: In preliminary studies, the inventors have obtained resection cancer tissue from 10 CCA patients. […] Pilots experiments were performed with a 9-drug library, at a standard HT screening drug concentration of 10 uM. For positive control, the inventors used 10% Triton X, while for negative control the inventors used DMSO at same concentration used to dissolve drugs. […] As proof of concept, the inventors then expanded to the 1,600 drug JHCCL Hopkins library (data not shown). […] This scale-up required a reproducible and accurate read out. We chose CellTiter-Glo (Promega), an ATP-based cytotoxicity assay that quantifies metabolically active cells. […] Next, the inventors sought to determine IC50s. […] Next, the inventors performed whole exome sequencing on a subset of these CCA PDOs. […] The inventors next performed pilot trials with high-content imaging. We utilized DRAQ5 (red) to stain nuclei and YOYO-1 (green in FIG. 9) to stain dead cells. In this experiment, we treated a CCA PDO culture with Gemcitabine, at concentrations from 10 to 0.1 uM. […] FIG. 10 is a representative 100× Hematoxylin and Eosin image of a PDX tumor.
Initial drug testing experiments were performed on one PDO line, with a 9-drug library, at a standard HT screening drug concentration of 10 uM. For these experiments, we utilized a CCA PDO line. For positive control, we used 10% Triton X, while for negative control we used DMSO […] same concentration used to dissolve drugs. For these experiments, we utilized white light images and equated the killing effect of drugs into shrinking of PDO cystic structures. […] To this end, we tested the 5 chemotherapy agents typically used in CCA patients, as well as several combinations (FIG. 18C). […] Next, we sought a fast, reproducible and relatively inexpensive read out of cell death (or inhibited proliferation). We chose CellTiter-Glo (Promega), which is an ATP-based cytotoxicity assay that quantifies metabolically active cells. […] Therefore, we have used CellTiter-Glo for all subsequent experiments. […] By using CellTiter-Glo, we quantified the viability of cells treated with single agents as well as combinations (as in FIG. 18C).

HCC = HCC patients; cited from earlier work

| Molecule | killing effect / activity across the 6 PDO lines ([1]; CCA8, 10 uM) | effectiveness across the cohort of primary liver mini-cancers / all 27 liver cancer PDO lines [2] | further results |
| --- | --- | --- | --- |
| O=C(/C=C/c1cccc(S(=O)(=O)Nc2ccccc2)c1)NO [Belinostat] | moderate activity in 1/6 PDO lines and generally poor activity in 5/6 | – | – |
| CC(C)C[C@H](NC(=O)[C@H](CCc1ccccc1)NC(=O)CN1CCOCC1)C(=O)N[C@@H](Cc1ccccc1)C(=O)N[C@@H](CC(C)C)C(=O)[C@@]1(C)CO1 [Carfilzomib, carifilzomib] | effective across the 6 PDO lines | pan-effective | – |
| Cc1cc(Nc2ncc(Cl)c(Nc3ccccc3S(=O)(=O)C(C)C)n2)c(OC(C)C)cc1C1CCNCC1 [Ceritinib] | high activity in 3/6 and almost no activity in the rest 3/6 PDO lines | – | – |
| N.N.[Cl][Pt][Cl] [Cisplatin] | uniformly ineffective | – | effect on PDO (shape, number or size of cystic PDO structures) (CCA PDO): no effect; also recorded: did not appear to have any effect; effect on PDO (shape, number or size of cystic PDO structures) (CCA PDO; listed as cisplatin): no effect on the round shape of PDO; effectiveness in CCAs tested (CCA PDO; all 6 CCAs tested): ineffective; effect on PDO growth (cytocidal / cytostatic) (CCA PDO): ineffective; also recorded: unaffected PDO growth |
| Cc1c2oc3c(C)ccc(C(=O)N[C@@H]4C(=O)N[C@H](C(C)C)C(=O)N5CCC[C@H]5C(=O)N(C)CC(=O)N(C)[C@@H](C(C)C)C(=O)O[C@@H]4C)c3nc-2c(C(=O)N[C@@H]2C(=O)N[C@H](C(C)C)C(=O)N3CCC[C@H]3C(=O)N(C)CC(=O)N(C)[C@@H](C(C)C)C(=O)O[C@@H]2C)c(N)c1=O [Dactinomycin, dactinomycin] (I: T[dV]P[Sar][NMeV] / II: T[dV]P[Sar][NMeV]; ester I:1-I:C, II:1-II:C; linker I:N-II:N via Actinocin(9to1)) | – | – | inter patient effect (mean cell viability per patient cancer specimen) [2]: work well in just 1 cancer |
| COc1cccc2c1C(=O)c1c(O)c3c(c(O)c1C2=O)C[C@@](O)(C(=O)CO)C[C@@H]3O[C@H]1C[C@H](N)[C@H](O)[C@H](C)O1 [Doxorubicin] | – | – | inter patient effect (mean cell viability per patient cancer specimen) [2]: work in majority of cancers, but not in all of them |
| COc1cccc2c1C(=O)c1c(O)c3c(c(O)c1C2=O)C[C@@](O)(C(=O)CO)C[C@@H]3O[C@H]1C[C@H](N)[C@@H](O)[C@H](C)O1 [Epirubicin] | wide response | – | – |
| Nc1ccn([C@@H]2O[C@H](CO)[C@@H](O)C2(F)F)c(=O)n1 [Gemcitabine] | moderate activity in 1/6 and poor activity in 5/6 PDO lines | – | inter patient effect (mean cell viability per patient cancer specimen) [2]: work in majority of cancers, but not in all of them; effect on PDO (shape, number or size of cystic PDO structures) (CCA PDO): moderate cytostatic but not a cytocydal effect; effect on PDO growth (cytocidal / cytostatic) (CCA PDO): moderate cytostatic, but not cytocidal effect; effect on PDO growth (cytocidal / cytostatic) (CCA PDO; listed as Gemicitabine): partially effective |
| CC(=O)[C@]1(O)Cc2c(O)c3c(c(O)c2[C@@H](O[C@H]2C[C@H](N)[C@H](O)[C@H](C)O2)C1)C(=O)c1ccccc1C3=O [Idarubicin, idarubicin] | effective across the 6 PDO lines | pan-effective | – |
| CC[C@H](Nc1ncnc2[nH]cnc12)c1nc2cccc(F)c2c(=O)n1-c1ccccc1 [Idelalisib] | uniformly ineffective | – | – |
| CC(C)C[C@H](NC(=O)CNC(=O)c1cc(Cl)ccc1Cl)B(O)O [Ixazomib, ixazomib] | effective across the 6 PDO lines | pan-effective | – |
| CS(=O)(=O)CCNCc1ccc(-c2ccc3ncnc(Nc4ccc(OCc5cccc(F)c5)c(Cl)c4)c3c2)o1 [Lapatinib] | uniformly ineffective | – | – |
| N#Cc1ccc(C(c2ccc(C#N)cc2)n2cncn2)cc1 [Letrozole] | uniformly ineffective | – | – |
| N[C@@H](Cc1ccc(N(CCCl)CCCl)cc1)C(=O)O [Melphalan] | uniformly ineffective | – | – |
| CO[C@@]12[C@H](COC(N)=O)C3=C(C(=O)C(C)=C(N)C3=O)N1C[C@@H]1N[C@@H]12 [Mitomycin, mitomycin] | – | – | killing effect / activity across the 6 PDO lines [1]: effective across the 6 PDO lines |
| COC(=O)C[C@](O)(CCCC(C)(C)O)C(=O)O[C@@H]1C(OC)=C[C@]23CCCN2CCc2cc4c(cc2[C@H]13)OCO4 [Omacetaxine, omacetaxine] | wide response | – | – |
| Cc1[nH]c2ccccc2c1CCNCc1ccc(/C=C/C(=O)NO)cc1 [Panobinostat, panobinostat] | – | pan-effective | – |
| C/C=C1\NC(=O)[C@H]2CSSCC/C=C/[C@H](CC(=O)N[C@H](C(C)C)C(=O)N2)OC(=O)[C@H](C(C)C)NC1=O [Romidepsin, romidepsin] | effective across the 6 PDO lines | pan-effective | – |
| CNC(=O)c1cc(Oc2ccc(NC(=O)Nc3ccc(Cl)c(C(F)(F)F)c3)cc2)ccn1 [Sorafenib] | – | – | improvement of survival (HCC): 3 months; side effects (HCC): severe side effects; inter patient effect (mean cell viability per patient cancer specimen) [2]: work in majority of cancers, but not in all of them |
| O=C1CCC(N2C(=O)c3ccccc3C2=O)C(=O)N1 (stereo not shown) [Thalidomide] | uniformly ineffective | – | – |
| CCC1=C[C@@H]2CN(C1)Cc1c([nH]c3ccccc13)[C@@](C(=O)OC)(c1cc3c(cc1OC)N(C)[C@H]1[C@@](O)(C(=O)OC)[C@H](OC(C)=O)[C@]4(CC)C=CCN5CC[C@]31[C@@H]54)C2 [Vinorelbine] | – | – | effect on PDO (shape, number or size of cystic PDO structures) (CCA PDO): effective |
| COc1cccc2c1C(=O)c1c(O)c3c(c(O)c1C2=O)C[C@@](O)(C(C)=O)C[C@@H]3O[C@H]1C[C@H](N)[C@H](O)[C@H](C)O1 [daunorubicin] | – | pan-effective | – |
| CC[C@@]1(O)C(=O)OCc2c1cc1n(c2=O)Cc2cc3c(CN(C)C)c(O)ccc3nc2-1 [topotecan] | – | pan-effective | – |
| CC[C@]1(O)C[C@H]2CN(CCc3c([nH]c4ccccc34)[C@@](C(=O)OC)(c3cc4c(cc3OC)N(C=O)[C@H]3[C@@](O)(C(=O)OC)[C@H](OC(C)=O)[C@]5(CC)C=CCN6CC[C@]43[C@@H]65)C2)C1 [vincristine] | – | – | inter patient effect (mean cell viability per patient cancer specimen) [2]: work well in just 1 cancer |
| plicamycin | effective across the 6 PDO lines | pan-effective | – |
